Experimental data from patent US20090325952A1, “PYRAZOLO[3,4-B]PYRIDINE COMPOUNDS, AND THEIR USE AS PDE4 INHIBITORS” (Glaxo Group Limited, priority 2006, published 2009).
Counter-ions that a name gives are not always drawn.

System: TNF-α (TNF-alpha) production in human PBMC (peripheral blood mononuclear cells)
Experiment: Inhibition of TNF-alpha production in human PBMC assay (MSD technology)
Format: cell-based
Conditions: LPS stimulated, measured and/or mean of n measurements; for IC50: Homo sapiens, PBMC, read-out: PBMC pIC50 (MSD assay), inhibition of TNF-α production (converted)
Procedure: A 96-well plate (96 MicroWell™ Plates Nunclon™Δ-High Flange Design, Fisher Scientific UK, Bishop Meadow Road, Loughborough LE 11 5 RG, Leicestershire, UK) is prepared by initially adding to column 1 ca. 10 mM of test compound dissolved in DMSO. […] The compound is further diluted with DMSO into columns 2 to 9 by 8 successive 3-fold dilutions using the Biomek® FX Laboratory Automation Workstation (Beckman Coulter, Inc., 4300 N. Harbor Boulevard, P.O. Box 3100, Fullerton, Calif. 92834-3100, USA). Column 10 is used as a DMSO negative control (High Signal, 0% response), whilst column 11, which contains 10 mM of the PDE4 inhibitor roflumilast, is used as a positive control (Low Signal, 100% response). About 1 μl (about 1 ul) of compound is transferred to the compound plate using the Biomek® FX.
PBMC cells (peripheral blood mononuclear cells) are prepared from heparinised human blood (using 1% v/v Heparin Sodium 10001 U/ml Endotoxin Free, Leo Laboratories Ltd., Cashel Road, Dublin 12. Ireland, Cat No: PL0043/0149) from normal volunteers using the Accuspin™ System-Histopaque®-1077 essentially (Sigma-Aldrich Company Ltd., The Old Brickyard New Rd, Gillingham, Dorset SP8 4XT, UK). About 20 ml of blood is overlaid onto 15 ml Histopaque® in Accuspin™ tubes. The tube is then centrifuged at about 800 g for ca. 20 minutes. The cells are collected from the interface, washed by centrifugation (ca. 1300 g, ca. 10 minutes) and resuspended in RPMI1640 medium (Low endotoxin RPMI1640 medium, Cat No: 31870-025, Invitrogen Corporation Invitrogen Ltd, 3 Fountain Drive, Inchinnan Business Park, Paisley PA4 9RF, UK) containing 10% foetal calf serum, 1% L-glutamine (Invitrogen Corporation, Cat No: 25030024) and 1% penicillin/streptomycin (Invitrogen Corporation, Cat No: 15140-122). Viable cells are counted by trypan blue staining and diluted to 1×10^6 viable cells/ml. About 50 μl (about 50 ul) of diluted cells and about 75 μl (about 75 ul) of LPS (ca. 1 ng/ml final; Sigma Cat No: L-6386) are added to the compound plate, which is then incubated at 37° C., 5% CO2, for 20 hours.
The supernatant is removed and the concentrations of TNF-α are determined by electrochemiluminescence assay using the Meso Scale Discovery (MSD) technology (Meso Scale Discovery, 9238 Gaither Road, Gaithersburg, Md. 20877, USA). See the “TNF-α (TNF-alpha) MSD Assay” described below for typical details.
For the following Examples, which are compounds of formula (I) or salts thereof, and generally when using the one of the above assays, or a generally similar or generally analogous assay, the measured and/or mean pIC50 values for inhibition of TNF-α (TNF-alpha) production in PBMCs are generally as follows (subject to a possibly-large variability or error):
Using the Biomek FX, 25 μl (25 ul) of MSD Human Serum Cytokine Assay Diluent (Meso Scale Discovery, 9238 Gaither Road, Gaithersburg, Md. 20877) is added to a 96-well High-Bind MSD plate pre-coated with anti-hTNF alpha capture antibody (MA6000) and then incubated for 24 hours at 4° C. to prevent non-specific binding. About 20 μl (ul) of supernatant from the PBMC plate or about 40 μl (ul) of supernatant from the whole blood (WB) plate are then transferred from columns 1-11 to columns 1-11 of the MSD plate using the Biomek FX. About 20 μl (ul) of TNF-α standard (Cat No. 210-TA; R&D Systems Inc., 614 McKinley Place NE, Minneapolis, Minn. 55413, USA) are added to column 12 of the MSD plate to generate a standard calibration curve (about 0 to 30000 pg/ml final).
For the Whole Blood assay, plates are washed after 2 hours shaking with a Skanwasher 300 version B (Skatron Instruments AS. PO Box 8, N-3401 Lier, Norway). About 40 μl (ul) of diluted sulfo-TAG antibody (ca. […] final) is added, the plates are shaken at room temperature for 1 hours, and the plates washed again as above. About 150 μl (ul) of Read Buffer T (2×) is added to the plates, which are then read on a MSD Sector 6000. […]

SMILES | IC50 [nM] | PBMC pIC50 (MSD assay), inhibition of TNF-α production
CCc1nc2c(cnn2CC)c(NC2CCOCC2)c1CNC(=O)c1ccc(NC(=O)CCCCCCCN(C)CCO)cc1 [Example 1A1, N-{[1,6-Diethyl-4-(tetrahydro-2H-pyran-4-ylamino)-1H-pyrazolo[3,4-b]pyridin-5-yl]methyl}-4-({8-[(2-hydroxyethyl)(methyl)amino]octanoyl}amino)benzamide dihydrochloride] | ~0.501 | –
CCc1nc2c(cnn2CC)c(NC2CCOCC2)c1CNC(=O)c1ccc(NC(=O)CCCCCCCN(C)CCO)cc1 [Example 1B, N-{[1,6-diethyl-4-(tetrahydro-2H-pyran-4-ylamino)-1H-pyrazolo[3,4-b]pyridin-5-yl]methyl}-4-({8-[(2-hydroxyethyl)(methyl)amino]octanoyl}amino)benzamide] | – | about 9.2 (n = 29)
CCc1nc2c(cnn2CC)c(NC2CCN(C(N)=O)CC2)c1CNC(=O)c1ccc(NC(=O)CCCCCCCN(C)CCO)cc1.O=C(O)C(F)(F)F [Example 9, 4-({1,6-diethyl-5-[({[4-({8-[(2-hydroxyethyl)(methyl)amino]octanoyl}amino)phenyl]carbonyl}amino)methyl]-1H-pyrazolo[3,4-b]pyridin-4-yl}amino)-1-piperidinecarboxamide trifluoroacetate (salt)] | – | about 8.4 (n = 4)
CCc1nc2c(cnn2CC)c(NC2CCOCC2)c1CNC(=O)c1ccc(CCCCOCCCCN(C)CCO)cc1 [Example 19, formate salt of N-{[1,6-diethyl-4-(tetrahydro-2H-pyran-4-ylamino)-1H-pyrazolo[3,4-b]pyridin-5-yl]methyl}-4-[4-({4-[(2-hydroxyethyl)(methyl)amino]butyl}oxy)butyl]benzamide] | ~0.251 | –
CCc1nc2c(cnn2CC)c(NC2CCN(C(N)=O)CC2)c1CNC(=O)c1ccc(CCCCOCCCCN2CCOCC2)cc1 [Example 23A, 4-({1,6-diethyl-5-[({[4-(4-{[4-(4-morpholinyl)butyl]oxy}butyl)phenyl]carbonyl}amino)methyl]-1H-pyrazolo[3,4-b]pyridin-4-yl}amino)-1-piperidinecarboxamide] | – | about 9.1 (n = 8)
CCn1ncc2c(NC3CCOCC3)c(CNC(=O)c3ccc(NC(=O)CCCCCCCN(C)CCO)cc3)cnc21 [Example 26, Formate salt of N-{[1-ethyl-4-(tetrahydro-2H-pyran-4-ylamino)-1H-pyrazolo[3,4-b]pyridin-5-yl]methyl}-4-({8-[(2-hydroxyethyl)(methyl)amino]octanoyl}amino)benzamide] | ~15.8 | –
